Assay [1] has as its target T1, Mcl-1/Bim interaction, recombinant human Mcl-1 (171-327) (Homo sapiens, UniProt Q07820).
T1 construct: made in house
Description: Cell free Mcl-1: Bim Affinity Assay (Mcl-1 HTRF). The assay is classed as binding. As to conditions: TR-FRET, 0.1 nM Mcl-1 (171-327), 0.05 nM biotin-Bim (51-76). In outline:
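Biotin-Bim(51-76) peptide, TR-FRET readout, overnight incubation; IC50 from duplicate competition curves, 4-parameter fit.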

Assay [2] relates to OPM-2 human multiple myeloma cell line. As to the kind of experiment: Cell Viability Assay (OPM-2 10 FBS). The assay is classed as cell-based. The settings on record: OPM-2 cells, CellTiter-Glo. Put shortly:
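IC50 from 4-parameter logistic fit of CellTiter-Glo luminescence. 3000 cells/well, 10% FBS medium, serial compound dilutions, 16 h, 37 °C/5% CO2; read 25 min post-reagent.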
In general terms: ATP-based viability assays read luminescence as a measure of living cells.

Where [3] appears, read: Homo sapiens, OPM-2, 16 h, 16 h incubation.
Setting [4] is: Homo sapiens, OPM-2, 16 h, 16 h.

These results are taken from patent US12091425B2 (AMGEN INC., priority 2016, dated 2024).

T1 sequence (Q07820 171-327): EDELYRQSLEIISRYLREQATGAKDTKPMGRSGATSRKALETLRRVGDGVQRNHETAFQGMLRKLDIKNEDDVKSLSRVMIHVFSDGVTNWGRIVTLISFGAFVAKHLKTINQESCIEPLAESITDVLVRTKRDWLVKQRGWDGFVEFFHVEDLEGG

What is called IC50 is the midpoint of a concentration-inhibition curve. As for `COCCO[C@H]1/C=C/[C@H](C)[C@H](C)CS(=O)(=O)NC(=O)c2ccc3c(c2)N(C[C@@H]2CC[C@H]21)C[C@@]1(CCCc2cc(Cl)ccc21)CO3` (single isomer, unassigned) [Example 1065], the IC50 is 0.402 nM in assay [1] and 94.9 nM in assay [2] (16 h incubation).
On to `CO[C@@H]1/C=C/[C@@H](C)[C@@H](C)CS(=O)(=O)NC(=O)c2ccc3c(c2)N(C[C@@H]2CC[C@H]21)C[C@@]1(CCCc2cc(Cl)ccc21)CO3` (single isomer, unassigned) [Example 1066], for which the figures for the IC50 in assay [1] and in assay [2] (setting [3]) were 17.8 nM and 15200 nM, respectively.
Consider `C[C@@H]1[C@@H](C)S(=O)(=O)NC(=O)c2ccc3c(c2)N(C[C@@H]2CC[C@H]2[C@H](O)/C=C/[C@@H]1C)C[C@@]1(CCCc2cc(Cl)ccc21)CO3` (single isomer, unassigned) [Example 1068], for which the IC50 came out at 0.442 nM in assay [1] and 1960 nM in assay [2] (16 h incubation).
As for `C[C@@H]1[C@@H](C)C=C/C=C/[C@@H]2CC[C@H]2CN2C[C@@]3(CCCc4cc(Cl)ccc43)COc3ccc(cc32)C(=O)NS1(=O)=O` (stereo in doubt) [Example 372, (1S,3′R,6′S,7′E,9′E,11′S,12′R)-6-chloro-11′,12′-dimethyl-3,4-dihydro-2H,15′H-spiro[naphthalene-1,22′-[20]oxa[13]thia[1,14]diazatetracyclo[14.7.2.0^3,6.0^19,24]pentacosa [7,9,16,18,24]pentaen]-15′-one 13′,13′-dioxide], the figures for the IC50 in assay [1] and in assay [2] (setting [4]) were 9.49 nM and 14600 nM, respectively.
`CC1C/C=C/[C@@H](O)[C@@H]2CC[C@H]2CN2C[C@@]3(CCCc4cc(Cl)ccc43)COc3ccc(cc32)C(=O)NS(=O)(=O)C1` (stereo in doubt) [Example 1088, (1S,3′R,6′R,7′R,8′E,11′S)-6-chloro-7′-hydroxy-11′-(methyl)-3,4-dihydro-2H,15′H-spiro [naphthalene-1,22′-[20]oxa[13]thia[1,14]diazatetracyclo[14.7.2.0^3,6.0^19,24]pentacosa [8,16,18,24]tetraen]-15′-one 13′,13′-dioxide]: the IC50 was found to be 4.37 nM in assay [1] and 8980 nM in assay [2] (setting [3]).
As to `CO[C@H]1/C=C/C[C@H](CO)[C@@H](C)S(=O)(=O)NC(=O)c2ccc3c(c2)N(C[C@@H]2CC[C@H]21)C[C@@]1(CCCc2cc(Cl)ccc21)CO3` [Example 1, (1S,3′R,6′R,7′S,8′E,11′R,12′R)-6-chloro-11′-(hydroxymethyl)-7′-methoxy-12′-methyl-3,4-dihydro-2H,15′H-spiro[naphthalene-1,22′-[20]oxa[13]thia[1,14]diazatetracyclo[14.7.2.0^3,6.0^19,24]pentacosa [8,16,18,24]tetraen]-15′-one 13′,13′-dioxide], the values for the IC50 in assay [1] and in assay [2] (setting [4]) were 0.34 nM and 254 nM, respectively.
In the case of `CO[C@H]1/C=C/C[C@H](CF)[C@@H](C)S(=O)(=O)NC(=O)c2ccc3c(c2)N(C[C@@H]2CC[C@H]21)C[C@@]1(CCCc2cc(Cl)ccc21)CO3` [Example 5, (1S,3′R,6′R,7′S,8′E,11′R,12′R)-6-chloro-11′-(fluoromethyl)-7′-methoxy-12′-methyl-3,4-dihydro-2H,15′H-spiro[naphthalene-1,22′-[20]oxa[13]thia[1,14]diazatetracyclo[14.7.2.0^3,6.0^19,24]pentacosa [8,16,18,24]tetraen]-15′-one 13′,13′-dioxide], the IC50 in assay [1] is 0.54 nM; in assay [2] (setting [4]) it was 329 nM.
On the same counts, the results for `C[C@@H]1CC/C=C/[C@H](O)[C@@H]2CC[C@H]2CN2C[C@@]3(CCC(F)(F)c4cc(Cl)ccc43)COc3ccc(cc32)C(=O)NS1(=O)=O` [Example 8, (1S,3′R,6′R,7′S,8′E,12′R)-6-chloro-4,4-difluoro-7′-hydroxy-12′-methyl-3,4-dihydro-2H,15′H-spiro[naphthalene-1,22′-[20]oxa[13]thia[1,14]diazatetracyclo[14.7.2.0^3,6.0^19,24]pentacosa [8,16,18,24]tetraen]-15′-one 13′,13′-dioxide] are 0.564 nM and 1460 nM.
On the same counts, the results for `C[C@@H]1[C@@H](C)C/C=C/[C@H](OCCN2CC(F)(F)C2)[C@@H]2CC[C@H]2CN2C[C@@]3(CCCc4cc(Cl)ccc43)COc3ccc(cc32)C(=O)NS1(=O)=O` [Example 9, (1S,3′R,6′R,7′S,8′E,11′S,12′R)-6-chloro-7′-(2-(3,3-difluoro-1-azetidinyl)ethoxy)-11′,12′-dimethyl-3,4-dihydro-2H,15′H-spiro[naphthalene-1,22′-[20]oxa[13]thia[1,14]diazatetracyclo[14.7.2.0^3,6.0^19,24]pentacosa[8,16,18,24]tetraen]-15′-one 13′,13′-dioxide] are 0.63 nM and 155 nM.
On to `C[C@@H]1[C@@H](C)C/C=C/[C@H](OCCN2CCC(F)(F)CC2)[C@@H]2CC[C@H]2CN2C[C@@]3(CCCc4cc(Cl)ccc43)COc3ccc(cc32)C(=O)NS1(=O)=O` [Example 10, (1S,3′R,6′R,7′S,8′E,11′S,12′R)-6-chloro-7′-(2-(4,4-difluoro-1-piperidinyl)ethoxy)-11′,12′-dimethyl-3,4-dihydro-2H,15′H-spiro[naphthalene-1,22′-[20]oxa[13]thia[1,14]diazatetracyclo[14.7.2.0^3,6.0^19,24]pentacosa[8,16,18,24]tetraen]-15′-one-13,13′-dioxide], for which the IC50 is 2.97 nM in assay [1] and 630 nM in assay [2] (setting [4]).
In the case of `C[C@@H]1[C@@H](C)C/C=C/[C@H](OCCNc2ccccc2)[C@@H]2CC[C@H]2CN2C[C@@]3(CCCc4cc(Cl)ccc43)COc3ccc(cc32)C(=O)NS1(=O)=O` [Example 11, (1S,3′R,6′R,7′S,8′E,11′S,12′R)-6-chloro-11′,12′-dimethyl-7′-(2-(phenylamino)ethoxy)-3,4-dihydro-2H,15′H-spiro[naphthalene-1,22′-[20]oxa[13]thia[1,14]diazatetracyclo[14.7.2.0^3,6.0^19,24]pentacosa[8,16,18,24]tetraen]-15′-one 13′,13′-dioxide], the IC50 in assay [1] was 5.22 nM; in assay [2] (setting [4]), 3650 nM.
In the case of `C[C@@H]1[C@@H](C)C/C=C/[C@H](OCCNc2ccccn2)[C@@H]2CC[C@H]2CN2C[C@@]3(CCCc4cc(Cl)ccc43)COc3ccc(cc32)C(=O)NS1(=O)=O` [Example 12, (1S,3′R,6′R,7′S,8′E,11′S,12′R)-6-chloro-11′,12′-dimethyl-7′-(2-(2-pyridinylamino)ethoxy)-3,4-dihydro-2H,15′H-spiro[naphthalene-1,22′-[20]oxa[13]thia[1,14]diazatetracyclo[14.7.2.0˜3,6˜.0˜19,24˜]pentacosa[8,16,18,24]tetraen]-15′-one 13′,13′-dioxide], the IC50 in assay [1] worked out at 3.37 nM; in assay [2] (setting [4]), 404 nM.
Consider `C[C@@H]1[C@@H](C)C/C=C/[C@H](OCCN(C)c2ccccn2)[C@@H]2CC[C@H]2CN2C[C@@]3(CCCc4cc(Cl)ccc43)COc3ccc(cc32)C(=O)NS1(=O)=O` [Example 13, (1S,3′R,6′R,7′S,8′E,11′S,12′R)-6-chloro-11′,12′-dimethyl-7′-(2-(methyl(2-pyridinyl)amino)ethoxy)-3,4-dihydro-2H,15′H-spiro[naphthalene-1,22′-[20]oxa[13]thia[1,14]diazatetracyclo[14.7.2.0˜3,6˜.0˜19,24˜]pentacosa[8,16,18,24]tetraen]-15′-one 13′,13′-dioxide], for which the figures for the IC50 in assay [1] and in assay [2] (setting [4]) were 0.685 nM and 312 nM, respectively.
Taken in the same sequence, the figures for `C[C@@H]1[C@@H](C)C/C=C/[C@H](OCCBr)[C@@H]2CC[C@H]2CN2C[C@@]3(CCCc4cc(Cl)ccc43)COc3ccc(cc32)C(=O)NS1(=O)=O` [Example 14, (1S,3′R,6′R,7′S,8′E,11′S,12′R)-7′-(2-bromoethoxy)-6-chloro-11′,12′-dimethyl-3,4-dihydro-2H,15′H-spiro[naphthalene-1,22′-[20]oxa[13]thia[1,14]diazatetracyclo[14.7.2.0^3,6.0^19,24]pentacosa[8,16,18,24]tetraen]-15′-one 13′,13′-dioxide] were 3.92 nM and 1100 nM.
As to `C[C@@H]1[C@@H](C)C/C=C/[C@H](OCCS(N)(=O)=O)[C@@H]2CC[C@H]2CN2C[C@@]3(CCCc4cc(Cl)ccc43)COc3ccc(cc32)C(=O)NS1(=O)=O` [Example 15, 2-(((1S,3′R,6′R,7′S,8′E,11′S,12′R)-6-chloro-11′,12′-dimethyl-13′,13′-dioxido-15′-oxo-3,4-dihydro-2H-spiro[naphthalene-1,22′-[20]oxa[13]thia[1,14]diazatetracyclo[14.7.2.0^3,6.0^19,24]pentacosa[8,16,18,24]tetraen]-7′-yl)oxy)ethanesulfonamide], the IC50 in assay [1] amounted to 0.393 nM; in assay [2] (setting [4]) it was 870 nM.
`C[C@@H]1[C@@H](C)/C=C/C[C@H](OCCN2CCOCC2)[C@@H]2CC[C@H]2CN2C[C@@]3(CCCc4cc(Cl)ccc43)COc3ccc(cc32)C(=O)NS1(=O)=O` [Example 16, (1S,3′R,6′R,7′S,9′E,11′S,12′R)-6-chloro-11′,12′-dimethyl-7′-(2-(4-morpholinyl)ethoxy)-3,4-dihydro-2H,15′H-spiro[naphthalene-1,22′-[20]oxa[13]thia[1,14]diazatetracyclo[14.7.2.0^3,6.0^19,24]pentacosa [9,16,18,24]tetraen]-15′-one 13′,13′-dioxide]: the IC50 in assay [1] came to 2.21 nM; in assay [2] (Homo sapiens, 16 h), 3580 nM.
In the case of `O=C1NS(=O)(=O)NCC/C=C/[C@H](O)[C@@H]2CC[C@H]2CN2C[C@@]3(CCCc4cc(Cl)ccc43)COc3ccc1cc32` [Example 19, (1S,3′R,6′R,7′S,8′E)-6-chloro-7′-hydroxy-3,4-dihydro-2H,15′H-spiro[naphthalene-1,22′-[20]oxa[13]thia[1,12,14]triazatetracyclo[14.7.2.0^3,6.0^19,24]pentacosa[8,16,18,24]tetraen]-15′-one 13,13′ dioxide], the figures for the IC50 in assay [1] and in assay [2] (setting [4]) were 0.494 nM and 1220 nM, respectively.
